Test results: patent US20090197949A1, “ANTITUMOR METHODS AND COMPOSITIONS COMPRISING SESQUITERPENE DERIVATIVES” (F.P.L. Pharma, Inc., priority 2001, published 2009)
Like-named read-outs stand apart in the source and are kept apart here.

Columns and labels:
[1] = test system: A-549 human lung carcinoma; assay: cells; format: cell-based
From the text: (§1) Normal human fibroblasts were purchased from Biopredic International (Rennes, France). This frozen culture was obtained from a person abdominal surgical waste and the cells used in this work was from the 7th to the 12th passage of the culture. M4Beu and […], human melanoma cell lines, was established in the laboratory of Dr. J. F. Doré (Institut National de la Santé et de la Recherche Médicale-INSERM, Unit 218, Lyon, France) from metastatic biopsy specimens (Thomasset, N. et al.; British Journal of Cancer, 46, 58-66 (1982)). Murine colon carcinoma cell line CT-26 was obtained from Dr I. J. Fidler (University of Texas M.D. Anderson Cancer Center, Houston). Breast cancer adenocarcinoma MCF-7 and MDA-MB-231, prostatic adenocarcinoma PC-3, ovary adenocarcinoma SK-OV-3, lung carcinoma A-549, colon adenocarcinoma DLD-1, human cell lines and melanoma 1B16 and fibroblast L-929 murine cell lines were purchased from American Type of Culture Collection (ATCC) or the European Collection of Cell Cultures (ECACC; Salisbury, United-Kingdom). Stock cell cultures were maintained as monolayers in 75-cm^2 culture flasks in GlutamaxTM Eagle's minimum essential medium with Earle's salts (Gibco-BRL, Paisley, Scotland) supplemented with 10% foetal calf serum (Sigma), and 5 ml of a 100× solution of vitamins (Gibco), 5 ml of 100 mM sodium pyruvate (Gibco), 5 ml of 100× non-essential amino acids (Gibco) and 2 mg of gentamicin base (Gibco). Cells were grown in a humidified 37° C. incubator containing 5% CO2. Cells were plated at a density of 5×10^3 cells per well in 96-well microplates (NunclonTM, Nunc) in 100 μl of culture medium and were allowed to adhere for 16 h before treatment. Then, 100 μl of culture medium containing essential oil of Pinus divaricata, essential oil of Thuya occidentalis, essential oil of Abies balsamea, α-humulene (Sigma-Aldrich); isocaryophyllene (Sigma-Aldrich) were added and incubated at 37° C. for 48 h. All compounds were dissolved in ethanol and the final concentration of ethanol in the culture medium was maintained at 0.5% (v/v). The effect of essential oils and compounds of oil on the proliferation of tumour cells was assessed using resazurin reduction test. Resazurin was recently identified as the alamar Blue dye (O'Brien, J. et al.; European Journal of Biochemistry, 267, 5421-6, (2000)). The resazurin reduction test (RRT) was carried out according to the protocol described here. Briefly, plates were rinsed by 200 μl PBS (37° C., Gibco) at 37° C. using an automatic microplate washer (Cell WashTM, Labsystems, Helsinki, Finland) and emptied by overturning on absorbent toweling. Then, 150 μl of a 25 μg/ml solution of resazurin in RPMI 1640 without Phenol red was added in each well using an automatic microvolume dispenser (Multidrop 384TM Labsystems). The plates were incubated 1 h at 37° C. in an humidified atmosphere with 5% of CO2 for fluorescence development by living cells. Fluorescence was then measured on the automated 96-well plate reader Fluoroskan Ascent FLTM (Labsystems) using an excitation wavelength of 530 nm and an emission one of 590 nm. The fluorescence is proportional to the number of living cells in the well and IC50 (drug concentration required to inhibit cell proliferation by 50%) was calculated from the curve of concentration-dependent survival percentage, defined as the fluorescence in experimental wells as a percentage of that in control wells, with blank values subtracted. The essentials oil of jack pine (Pinus banksiana or Pinus divaricata), eastern white cedar (Thuya occidentalis), balsam fir (Abies balsamea), were evaluated for their cytotoxic activity against various tumor cell lines (Table 1). The cell growth inhibition were measured by the fluorescence induced by the metabolic transformation of resazurin in resorufin. The fluorescence is proportional to living cells and allow to evaluate the concentration inhibiting 50% of cell growth (IC50).

[2] = test system: DLD-1 human colon adenocarcinoma; assay: cells; format: cell-based
From the text: as §1

M4BEU human melanoma = assay: cells; format: cell-based
From the text: as §1

[3] = test system: MCF-7 human breast adenocarcinoma; assay: cells; format: cell-based
From the text: as §1

[4] = test system: PC-3 human prostatic adenocarcinoma; assay: cells; format: cell-based
From the text: as §1

Normal human fibroblasts = assay: In vitro survival assay, resazurin reduction test, normal fibroblasts; format: cell-based; details: Fibroblast
From the text: (§2) Normal human fibroblasts were purchased from Biopredic International (Rennes, France). This frozen culture was obtained from a person abdominal surgical waste and the cells used in this work was from the 7th to the 12th passage of the culture. M4Beu and […], human melanoma cell lines, was established in the laboratory of Dr. J. F. Doré (Institut National de la Santé et de la Recherche Médicale-INSERM, Unit 218, Lyon, France) from metastatic biopsy specimens (Thomasset, N. et al.; British Journal of Cancer, 46, 58-66 (1982)). Murine colon carcinoma cell line CT-26 was obtained from Dr I. J. Fidler (University of Texas M.D. Anderson Cancer Center, Houston). Breast cancer adenocarcinoma MCF-7 and MDA-MB-231, prostatic adenocarcinoma PC-3, ovary adenocarcinoma SK-OV-3, lung carcinoma A-549, colon adenocarcinoma DLD-1, human cell lines and melanoma 1B16 and fibroblast L-929 murine cell lines were purchased from American Type of Culture Collection (ATCC) or the European Collection of Cell Cultures (ECACC; Salisbury, United-Kingdom). […] The effect of essential oils and compounds of oil on the proliferation of tumour cells was assessed using resazurin reduction test. […] The plates were incubated 1 h at 37° C. in an humidified atmosphere with 5% of CO2 for fluorescence development by living cells. Fluorescence was then measured on the automated 96-well plate reader Fluoroskan Ascent FLTM (Labsystems) using an excitation wavelength of 530 nm and an emission one of 590 nm. […] The essentials oil of jack pine (Pinus banksiana or Pinus divaricata), eastern white cedar (Thuya occidentalis), balsam fir (Abies balsamea), were evaluated for their cytotoxic activity against various tumor cell lines (Table 1). The cell growth inhibition were measured by the fluorescence induced by the metabolic transformation of resazurin in resorufin. […]

[5] = test system: L-929 mouse subcutaneous connective tissue (fibroblast); assay: In vitro survival assay, resazurin reduction test, L-929; format: cell-based; details: L929, L-929, 48 h
From the text: as §2, with “Houston).” for “Houston). Breast cancer adenocarcinoma MCF-7 and MDA-MB-231, prostatic adenocarcinoma PC-3, ovary adenocarcinoma SK-OV-3, lung carcinoma A-549, colon adenocarcinoma DLD-1, human cell lines and melanoma 1B16 and fibroblast L-929 murine cell lines were purchased from American Type of Culture Collection (ATCC) or the European Collection of Cell Cultures (ECACC; Salisbury, United-Kingdom).”, “1).” for “1). The cell growth inhibition were measured by the fluorescence induced by the metabolic transformation of resazurin in resorufin.”

[6] = test system: CT-26 mouse colon carcinoma; assay: In vitro survival assay, resazurin reduction test, CT-26; format: cell-based; details: CT26, CT-26, 48 h
From the text: as §2, with “Houston).” for “Houston). Breast cancer adenocarcinoma MCF-7 and MDA-MB-231, prostatic adenocarcinoma PC-3, ovary adenocarcinoma SK-OV-3, lung carcinoma A-549, colon adenocarcinoma DLD-1, human cell lines and melanoma 1B16 and fibroblast L-929 murine cell lines were purchased from American Type of Culture Collection (ATCC) or the European Collection of Cell Cultures (ECACC; Salisbury, United-Kingdom).”, “1).” for “1). The cell growth inhibition were measured by the fluorescence induced by the metabolic transformation of resazurin in resorufin.”

[7] = test system: glutathione-S-transferase; details: Zheng et al. 1992; cited from earlier work
tumor cell lines = assay: In vitro cytotoxic/antitumoral activity against tumor cell lines (panel statement); format: cell-based
Procedure: Cells were plated at a density of 5×10^3 cells per well in 96-well microplates (Nunclon™, Nunc) in 100 μl of culture medium and were allowed to adhere for 16 h before treatment. Then, 100 μl of culture medium containing essential oil of Pinus divaricata, essential oil of Thuya occidentalis, essential oil of Abies balsamea, α-humulene (Sigma-Aldrich); isocaryophyllene (Sigma-Aldrich) were added and incubated at 37° C. for 48 h. All compounds were dissolved in ethanol and the final concentration of ethanol in the culture medium was maintained at 0.5% (v/v). The effect of essential oils and compounds of oil on the proliferation of tumour cells was assessed using resazurin reduction test.
The resazurin reduction test (RRT) was carried out according to the protocol described here. Briefly, plates were rinsed by 200 μl PBS (37° C., Gibco) at 37° C. using an automatic microplate washer (Cell Wash™, Labsystems, Helsinki, Finland) and emptied by overturning on absorbent toweling. […] The plates were incubated 1 h at 37° C. in an humidified atmosphere with 5% of CO2 for fluorescence development by living cells. Fluorescence was then measured on the automated 96-well plate reader Fluoroskan Ascent FL™ (Labsystems) using an excitation wavelength of 530 nm and an emission one of 590 nm.

[8] = test system: about ten tumor cell lines; details: Kaneda et al. 1992; cited from earlier work
[9] = test system: gastric mucosal injuries induced by necrotizing agents; details: necrotizing agents such as absolute ethanol and HCl; Tambe et al. 1996; cited from earlier work
[10] = A549, A-549, 48 h, read-out: IC50
[11] = MCF7, MCF-7, 48 h, read-out: IC50

SMILES	IC50 [1, 10] [µM]	IC50 ([1]; A549, read-out: cytotoxic activity) [µM]	IC50 ([2]; DLD-1, 48 h, read-out: IC50) [µM]	IC50 ([2]; DLD-1, read-out: cytotoxic activity) [µM]	IC50 (M4BEU human melanoma; 48 h, read-out: IC50) [µM]	IC50 (M4BEU human melanoma; read-out: cytotoxic activity) [µM]	IC50 [3, 11] [µM]	IC50 ([3]; MCF7, read-out: cytotoxic activity) [µM]	IC50 ([4]; PC-3, 48 h, read-out: IC50) [µM]	IC50 ([4]; read-out: cytotoxic activity) [µM]	IC50 (Normal human fibroblasts; 48 h, read-out: IC50) [µM]	IC50 [5] [µM]	IC50 [6] [µM]	glutathione-S-transferase activity in vivo [7]	antitumoral activity in vitro, evaluated by the Applicants (tumor cell lines)	activity in vitro against about ten tumor cell lines [8]	gastric cytoprotection effect [9]	IC50 (Normal human fibroblasts; fibroblastic normal cell, Table 2, read-out: activity against fibroblastic normal cell) [µM]	IC50 (tumor cell lines; all tumor cells tested, Table 2) [µM]
CC1=CCCC(C)=CCC(C)(C)C=CC1 [α-humulene, 2,6,6,9-Tetramethyl-1,4,8-cycloundecatriene]	68 ± 2	< 100	71 ± 2	< 100	55 ± 2	< 100	73 ± 2	< 100	73 ± 2	< 100	85 ± 5	50.2 ± 0.3	53 ± 1	increasing of gluthatione-S-transferase activity					
C=C1CC[C@H]2O[C@]2(C)CC[C@@H]2[C@@H]1CC2(C)C [β-caryophyllene oxide]														increasing of gluthatione-S-transferase activity	no significant bioactivity	inactive			
C=C1CC/C=C(\C)CC[C@@H]2[C@@H]1CC2(C)C [β-caryophyllene]														increasing of gluthatione-S-transferase activity	no significant bioactivity		inhibition of gastric mucosal injuries		
C=C1CCC=C(C)CC[C@H]2[C@@H]1CC2(C)C (relative stereo) [Isocaryophyllene, cis-4,11,11-Trimethyl-8-methylenebicyclo[7.2.0]undec-4-ene]	59 ± 4		124 ± 17		43 ± 3		84 ± 6		87 ± 8		124 ± 15	34 ± 0.8	46 ± 1					> 100	< 100
